Experiment: Rest activity of natamycin over time in water based polymer dispersion mixtures (HPLC)
Format: physicochemical
Excerpt: This example describes a method to prepare a formulation suitable for use as a food coating and which was developed to test the stability of natamycin over time in relation to the added base polymers.
The mixtures were made with an electric top stirrer, type RW 20 DZM, from Janke & Kunkel equipped with a rushton stirrer.
The mixtures were made by adding 500 gram Mowilith DM2KL, 1000 gram of the latex polymer, to be tested together with 4 gram Delvocid® and a protective additive.
The total weight was made up to 2000 gram with tap water.
This crude mixture was mixed for 5 minutes to obtain a homogeneous mixture and was then adjusted to pH 4-7 with ammonia.
The mixture was stored at 18° C. in a closed pot in the dark.
The prepared mixtures were measured over time for the amount of active natamycin using the test described in Example 2.
This Example describes the method that was used to analyze the amount of active natamycin in a water based mixture of several components.
The method was a HPLC analysis based on the International Dairy Federation (Provisional ADF Standard 140, 1987) with a Lichrosorb RP 8 column. Detection was by UV at 303 nm with a range of 0.1-4 mg/L with an injection volume of 20 μl.
Sample preparation was carried out by weighing 2 g prepared formulation with an accuracy of 1 mg in a measuring flask. 4 ml demineralized water (demiwater) was added and the mixture was stirred for […] a homogeneous suspension.
Subsequently 80 ml methanol was added and the mixture was stirred for 10 minutes. After ultrasonic treatment the solution was filled up to 100 ml with demiwater and the diluted and/or filtered (0.2 μm) before injecting.
The amount of active natamycin as ppm was calculated against a series of standards.
To test the stability of natamycin in combination with water based polymer dispersions mixtures, mixtures were made according to Example 1, and the rest activity of natamycin measured according to Example 2. The results are set out in table 1 (rest activity in %).

Rest activity of natamycin over time (Basepolymer 2, EDTA-disodiumsalt 0 ppm, 0 weeks): 100% | Rest activity of natamycin over time (Basepolymer 2, EDTA-disodiumsalt 0 ppm, 1 week): 70% | Rest activity of natamycin over time (Basepolymer 2, EDTA-disodiumsalt 0 ppm, 3 weeks): 22% | Rest activity of natamycin over time (Basepolymer 2, EDTA-disodiumsalt 0 ppm, 5 weeks): 5% | Rest activity of natamycin over time (Basepolymer 2, EDTA-disodiumsalt 0 ppm, 7 weeks): 2% | Rest activity of natamycin over time (Basepolymer 2, EDTA-disodiumsalt 100 ppm, 0 weeks): 100% | Rest activity of natamycin over time (Basepolymer 2, EDTA-disodiumsalt 100 ppm, 1 week): 99% | Rest activity of natamycin over time (Basepolymer 2, EDTA-disodiumsalt 100 ppm, 3 weeks): 98% | Rest activity of natamycin over time (Basepolymer 2, EDTA-disodiumsalt 100 ppm, 5 weeks): 88% | Rest activity of natamycin over time (Basepolymer 2, EDTA-disodiumsalt 100 ppm, 7 weeks): 82% | Rest activity of natamycin over time (Basepolymer 2, EDTA-disodiumsalt 250 ppm, 0 weeks): 100% | Rest activity of natamycin over time (Basepolymer 2, EDTA-disodiumsalt 250 ppm, 1 week): 97% | Rest activity of natamycin over time (Basepolymer 2, EDTA-disodiumsalt 250 ppm, 3 weeks): 95% | Rest activity of natamycin over time (Basepolymer 2, EDTA-disodiumsalt 250 ppm, 5 weeks): 88% | Rest activity of natamycin over time (Basepolymer 2, EDTA-disodiumsalt 250 ppm, 7 weeks): 85% | Rest activity of natamycin over time (Basepolymer 2, EDTA-disodiumsalt 500 ppm, 0 weeks): 100% | Rest activity of natamycin over time (Basepolymer 2, EDTA-disodiumsalt 500 ppm, 1 week): 95% | Rest activity of natamycin over time (Basepolymer 2, EDTA-disodiumsalt 500 ppm, 3 weeks): 92% | Rest activity of natamycin over time (Basepolymer 2, EDTA-disodiumsalt 500 ppm, 5 weeks): 86% | Rest activity of natamycin over time (Basepolymer 2, EDTA-disodiumsalt 500 ppm, 7 weeks): 80% | Rest activity of natamycin over time (Basepolymer 2, EDTA-disodiumsalt 750 ppm, 0 weeks): 100% | Rest activity of natamycin over time (Basepolymer 2, EDTA-disodiumsalt 750 ppm, 1 week): 96% | Rest activity of natamycin over time (Basepolymer 2, EDTA-disodiumsalt 750 ppm, 3 weeks): 95% | Rest activity of natamycin over time (Basepolymer 2, EDTA-disodiumsalt 750 ppm, 5 weeks): 88% | Rest activity of natamycin over time (Basepolymer 2, EDTA-disodiumsalt 750 ppm, 7 weeks): 82% | Rest activity of natamycin over time (Basepolymer 2, EDTA-disodiumsalt 1000 ppm, 0 weeks): 100% | Rest activity of natamycin over time (Basepolymer 2, EDTA-disodiumsalt 1000 ppm, 1 week): 96% | Rest activity of natamycin over time (Basepolymer 2, EDTA-disodiumsalt 1000 ppm, 3 weeks): 95% | Rest activity of natamycin over time (Basepolymer 2, EDTA-disodiumsalt 1000 ppm, 5 weeks): 88% | Rest activity of natamycin over time (Basepolymer 2, EDTA-disodiumsalt 1000 ppm, 7 weeks): 81% | Rest activity of natamycin over time (Basepolymer 2, EDTA-disodiumsalt 2000 ppm, 0 weeks): 100% | Rest activity of natamycin over time (Basepolymer 2, EDTA-disodiumsalt 2000 ppm, 1 week): 97% | Rest activity of natamycin over time (Basepolymer 2, EDTA-disodiumsalt 2000 ppm, 3 weeks): 94% | Rest activity of natamycin over time (Basepolymer 2, EDTA-disodiumsalt 2000 ppm, 5 weeks): 88% | Rest activity of natamycin over time (Basepolymer 2, EDTA-disodiumsalt 2000 ppm, 7 weeks): 79% | Rest activity of natamycin over time (Basepolymer 2, EDTA-disodiumsalt 5000 ppm, 0 weeks): 100% | Rest activity of natamycin over time (Basepolymer 2, EDTA-disodiumsalt 5000 ppm, 1 week): 97% | Rest activity of natamycin over time (Basepolymer 2, EDTA-disodiumsalt 5000 ppm, 3 weeks): 95% | Rest activity of natamycin over time (Basepolymer 2, EDTA-disodiumsalt 5000 ppm, 5 weeks): 88% | Rest activity of natamycin over time (Basepolymer 2, EDTA-disodiumsalt 5000 ppm, 7 weeks): 81% | Rest activity of natamycin over time (basepolymer 3, With BHA 1000 ppm, 1 week): 96% | Rest activity of natamycin over time (basepolymer 3, With BHA 1000 ppm, 2 weeks): 92% | Rest activity of natamycin over time (basepolymer 3, With BHA 1000 ppm, 4 weeks): 84% | Rest activity of natamycin over time (basepolymer 3, With tocopherol 1000 ppm, 1 week): 92% | Rest activity of natamycin over time (basepolymer 3, With tocopherol 1000 ppm, 2 weeks): 83% | Rest activity of natamycin over time (basepolymer 3, With tocopherol 1000 ppm, 4 weeks): 76% | Rest activity of natamycin over time (basepolymer 3, Without additive, 1 week): 88% | Rest activity of natamycin over time (basepolymer 3, Without additive, 2 weeks): 70% | Rest activity of natamycin over time (basepolymer 3, Without additive, 4 weeks): 50%
SMILES: C[C@@H]1C/C=C/C=C/C=C/C=C/[C@H](O[C@@H]2O[C@H](C)[C@@H](O)[C@H](N)[C@@H]2O)C[C@@H]2O[C@](O)(C[C@@H](O)C[C@H]3O[C@@H]3/C=C/C(=O)O1)C[C@H](O)[C@H]2C(=O)O [natamycin]

— patent publication US20030055010A1, “Preserving active fungicide in an aqueous solution” (priority 1999, published 2003)
